Assay results from PubChem BioAssay AID2060891 (Molecular Pharmacology Branch, DTP, NCI, 2025).

System: K98450-129-R-PDC complex spheroid growth, percent test/control
Assay: Anticancer human tumor K98450-129-R-PDC patient-derived colon adenocarcinoma cell line growth inhibition [RAS]
Conditions: for IC50: curve of first compound; for viability, T/C: stronger effect = lower value
Outline: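 Tumour cells grown as complex spheroids with HUVEC endothelial cells and mesenchymal stem cells, treated with RAS pathway inhibitor combinations. Each agent spans half-log steps from near clinical Cmax, or 10 microM where Cmax is unknown.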

[1] = second compound 0.000949 µM, first compound 0.0316 µM
[2] = second compound 0.000949 µM, first compound 0.1 µM
[3] = second compound 0.000949 µM, first compound 0.316 µM
[4] = second compound 0.000949 µM, first compound 1 µM
[5] = second compound 0.000949 µM, first compound 3.16 µM
[6] = second compound 0.000949 µM, first compound 10 µM
[7] = second compound 0.003 µM, first compound 0.0316 µM
[8] = second compound 0.003 µM, first compound 0.1 µM
[9] = second compound 0.003 µM, first compound 0.316 µM
[10] = second compound 0.003 µM, first compound 1 µM
[11] = second compound 0.003 µM, first compound 3.16 µM
[12] = second compound 0.003 µM, first compound 10 µM
[13] = second compound 0.00949 µM, first compound 0.0316 µM
[14] = second compound 0.00949 µM, first compound 0.1 µM
[15] = second compound 0.00949 µM, first compound 0.316 µM
[16] = second compound 0.00949 µM, first compound 1 µM
[17] = second compound 0.00949 µM, first compound 3.16 µM
[18] = second compound 0.00949 µM, first compound 10 µM
[19] = second compound 0.03 µM, first compound 0.0316 µM
[20] = second compound 0.03 µM, first compound 0.1 µM
[21] = second compound 0.03 µM, first compound 0.316 µM
[22] = second compound 0.03 µM, first compound 1 µM
[23] = second compound 0.03 µM, first compound 3.16 µM
[24] = second compound 0.03 µM, first compound 10 µM
[25] = second compound 0.0949 µM, first compound 0.0316 µM
[26] = second compound 0.0949 µM, first compound 0.1 µM
[27] = second compound 0.0949 µM, first compound 0.316 µM
[28] = second compound 0.0949 µM, first compound 1 µM
[29] = second compound 0.0949 µM, first compound 3.16 µM
[30] = second compound 0.0949 µM, first compound 10 µM
[31] = second compound 0.3 µM, first compound 0.0316 µM
[32] = second compound 0.3 µM, first compound 0.1 µM
[33] = second compound 0.3 µM, first compound 0.316 µM
[34] = second compound 0.3 µM, first compound 1 µM
[35] = second compound 0.3 µM, first compound 3.16 µM
[36] = second compound 0.3 µM, first compound 10 µM
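Further: spheroids exposed to agents for seven days before the viability readout.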
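Wherever viability, T/C is given: luminescence used as a proxy for viable cell amount.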

How did the IC50 (second compound 0.000949 µM) turn out when CC1(O)CCCC1n1c(=O)c(C(F)F)cc2cnc(NC3CCN(S(C)(=O)=O)CC3)nc21 (centres undefined) + CCn1c(-c2cc(N3CCN(C)CC3)cnc2C(C)OC)c2c3cc(ccc31)-c1csc(n1)CC(NC(=O)C1CC1C)C(=O)N1CCCC(N1)C(=O)OCC(C)(C)C2 was run?
The IC50 was greater than 10000 nM.

And the IC50 (second compound 0.003 µM)?
Its IC50 is greater than 10000 nM.

And the IC50 (second compound 0.00949 µM)?
Its IC50 is 2340 nM.

And the IC50 (second compound 0.03 µM)?
The IC50 was less than 31.6 nM.

And the IC50 (second compound 0.0949 µM)?
Its IC50 is less than 31.6 nM.

And the IC50 (second compound 0.3 µM)?
The IC50 was less than 31.6 nM.

And the viability, T/C [1]?
Its viability, T/C is 97.3%.

What about the viability, T/C [2] of the same molecule?
Its viability, T/C is 94.3%.

What about the viability, T/C [3] of the same molecule?
The viability, T/C was 95.8%.

What about the viability, T/C [4] of the same molecule?
The viability, T/C was 72%.

What about the viability, T/C [5] of the same molecule?
The viability, T/C was 72.1%.

And the viability, T/C [6]?
Its viability, T/C is 78.4%.

What about the viability, T/C [7] of the same molecule?
Its viability, T/C is 81.7%.

What about the viability, T/C [8] of the same molecule?
Its viability, T/C is 78.6%.

What about the viability, T/C [9] of the same molecule?
The viability, T/C was 60.3%.

And the viability, T/C [10]?
Its viability, T/C is 74.2%.

What about the viability, T/C [11] of the same molecule?
Its viability, T/C is 68.3%.

And the viability, T/C [12]?
The viability, T/C was 71%.

What about the viability, T/C [13] of the same molecule?
The viability, T/C was 77.1%.

What about the viability, T/C [14] of the same molecule?
Its viability, T/C is 69.8%.

And the viability, T/C [15]?
Its viability, T/C is 60.5%.

What about the viability, T/C [16] of the same molecule?
Its viability, T/C is 50.9%.

What about the viability, T/C [17] of the same molecule?
Its viability, T/C is 50.5%.

And the viability, T/C [18]?
The viability, T/C was 47.8%.

And the viability, T/C [19]?
Its viability, T/C is 47.9%.

And the viability, T/C [20]?
Its viability, T/C is 46.9%.

What about the viability, T/C [21] of the same molecule?
Its viability, T/C is 48.4%.

What about the viability, T/C [22] of the same molecule?
Its viability, T/C is 36.6%.

And the viability, T/C [23]?
The viability, T/C was 35.4%.

What about the viability, T/C [24] of the same molecule?
The viability, T/C was 28.2%.

What about the viability, T/C [25] of the same molecule?
The viability, T/C was 22.6%.

What about the viability, T/C [26] of the same molecule?
Its viability, T/C is 22.1%.

And the viability, T/C [27]?
Its viability, T/C is 18.2%.

And the viability, T/C [28]?
The viability, T/C was 17.9%.

What about the viability, T/C [29] of the same molecule?
Its viability, T/C is 21%.

And the viability, T/C [30]?
Its viability, T/C is 17.7%.

And the viability, T/C [31]?
Its viability, T/C is 11.4%.

What about the viability, T/C [32] of the same molecule?
The viability, T/C was 11.9%.

What about the viability, T/C [33] of the same molecule?
Its viability, T/C is 12.3%.

What about the viability, T/C [34] of the same molecule?
The viability, T/C was 13.8%.

And the viability, T/C [35]?
Its viability, T/C is 12.7%.

What about the viability, T/C [36] of the same molecule?
The viability, T/C was 11.8%.

With CCC(CC)c1cc(NC2CCC(N)C2)n2nccc2n1 (centres undefined) + CCn1c(-c2cc(N3CCN(C)CC3)cnc2C(C)OC)c2c3cc(ccc31)-c1csc(n1)CC(NC(=O)C1CC1C)C(=O)N1CCCC(N1)C(=O)OCC(C)(C)C2 as the molecule, how does the IC50 (second compound 0.000949 µM) read?
The IC50 was 4120 nM.

And the IC50 (second compound 0.003 µM)?
Its IC50 is 3690 nM.

And the IC50 (second compound 0.00949 µM)?
The IC50 was 2350 nM.

What about the IC50 (second compound 0.03 µM) of the same molecule?
Its IC50 is 887 nM.

What about the IC50 (second compound 0.0949 µM) of the same molecule?
The IC50 was less than 31.6 nM.

And the IC50 (second compound 0.3 µM)?
Its IC50 is less than 31.6 nM.

And the viability, T/C [1]?
Its viability, T/C is 97.9%.

What about the viability, T/C [2] of the same molecule?
Its viability, T/C is 88%.

What about the viability, T/C [3] of the same molecule?
The viability, T/C was 95.7%.

What about the viability, T/C [4] of the same molecule?
Its viability, T/C is 65.1%.

What about the viability, T/C [5] of the same molecule?
Its viability, T/C is 68.5%.

And the viability, T/C [6]?
Its viability, T/C is 16.4%.

What about the viability, T/C [7] of the same molecule?
Its viability, T/C is 91.7%.

And the viability, T/C [8]?
Its viability, T/C is 83.2%.

And the viability, T/C [9]?
The viability, T/C was 75.7%.

What about the viability, T/C [10] of the same molecule?
The viability, T/C was 66.3%.

What about the viability, T/C [11] of the same molecule?
Its viability, T/C is 63.3%.

And the viability, T/C [12]?
Its viability, T/C is 13.3%.

And the viability, T/C [13]?
The viability, T/C was 81.2%.

What about the viability, T/C [14] of the same molecule?
Its viability, T/C is 60.9%.

What about the viability, T/C [15] of the same molecule?
Its viability, T/C is 61%.

What about the viability, T/C [16] of the same molecule?
The viability, T/C was 62.7%.

What about the viability, T/C [17] of the same molecule?
The viability, T/C was 48.6%.

What about the viability, T/C [18] of the same molecule?
The viability, T/C was 12.9%.

And the viability, T/C [19]?
Its viability, T/C is 57.4%.

And the viability, T/C [20]?
The viability, T/C was 44.2%.

And the viability, T/C [21]?
Its viability, T/C is 51.2%.

What about the viability, T/C [22] of the same molecule?
The viability, T/C was 49.9%.

What about the viability, T/C [23] of the same molecule?
Its viability, T/C is 18.6%.

And the viability, T/C [24]?
The viability, T/C was 12.2%.

And the viability, T/C [25]?
The viability, T/C was 23.2%.

What about the viability, T/C [26] of the same molecule?
Its viability, T/C is 20.8%.

What about the viability, T/C [27] of the same molecule?
The viability, T/C was 20.7%.

What about the viability, T/C [28] of the same molecule?
The viability, T/C was 17%.

What about the viability, T/C [29] of the same molecule?
Its viability, T/C is 5.39%.

What about the viability, T/C [30] of the same molecule?
Its viability, T/C is 10.7%.

And the viability, T/C [31]?
Its viability, T/C is 12.3%.

What about the viability, T/C [32] of the same molecule?
Its viability, T/C is 13%.

What about the viability, T/C [33] of the same molecule?
The viability, T/C was 11.2%.

And the viability, T/C [34]?
The viability, T/C was 11.6%.

What about the viability, T/C [35] of the same molecule?
Its viability, T/C is 3.99%.

And the viability, T/C [36]?
The viability, T/C was 12.9%.
